Experiment [1] has as its system Klebsiella pneumoniae expressing KPC-1 (CL6569). In words: Antibiotic activity: growth inhibitory concentration (OD600), Klebsiella pneumoniae CL6569. The settings on record: lowest concentration inhibiting 95% of bacterial growth; in the presence of β lactamase inhibitor Relebactam 4 μg/mL; 35±2° C. for 22 hours; tested range 100 μM to 0.098 μM. In kind it is cell-based. The procedure:
(§1) Antibiotic Activity: Determination of Growth Inhibitory Concentration
(§2) The concentrations of compounds required to inhibit the growth of various strains of bacteria were determined in an assay that assessed bacterial growth by measuring optical density at 600 nm (OD600). The bacterial strains tested included the clinical strains Escherichia coli expressing NDM-1 (CLB30016), Klebsiella pneumoniae expressing KPC-1 (CL6569), Acinetobacter baumannii expressing TEM-1, AmpC, and Oxa-24/40 (CL6188) and Pseudomonas aeruginosa expressing AmpC (CL5701). All compounds were tested in the presence of a β lactamase inhibitor (BLi, Relebactam) in 384-well microplates. The clinical strains were stored as frozen single use stocks, thawed and diluted into 1.1× cation-adjusted Mueller-Hinton II broth to achieve approximately 2×10^5 CFU/mL. Test compounds were dissolved in DMSO and diluted 1:50 in the assay, resulting in a final concentration range of 100 μM to 0.098 μM. On the day of the assay, 1 μL of test compound was added to the plate followed by 4 μL of 50 μg/mL BLi in MOPS buffer and 45 μL of diluted bacteria. Plates were centrifuged at 1000 rpm for 30 seconds, shaken at approximately 800 rpm for 1 minute, and incubated at 35±2° C. for 22 hours. The concentration of BLi used in the assay was 4 μg/mL. At the end of the incubation, absorbance at 600 nm was determined using a spectrophotometer. Inhibition was quantitated by identifying the lowest concentration of test compound that was required to inhibit 95% of the growth of the bacteria. The results for Examples 1-126 are reported in Table I, expressed as the concentration of compound that inhibited 95% of bacterial growth (Minimum Inhibitory Threshold Concentration; MITC95).

Experiment [2] relates to Pseudomonas aeruginosa expressing AmpC (CL5701). In words: Antibiotic activity: growth inhibitory concentration (OD600), Pseudomonas aeruginosa CL5701. The following applies: lowest concentration inhibiting 95% of bacterial growth; in the presence of β lactamase inhibitor Relebactam 4 μg/mL; 35±2° C. for 22 hours; tested range 100 μM to 0.098 μM. In kind it is cell-based. The method, then: as §1, §2

Counter-ions that a name gives are not always drawn.

For the compound `C[n+]1cc(-c2ccc(OC[C@](C)(O/N=C(\C(=O)N[C@@H]3C(=O)N(OS(=O)(=O)O)C3(C)C)c3csc(N)n3)C(=O)O)cc2)cn1CCCN` (single isomer, unassigned) [Example 23B, 2,2,2-trifluoroacetate], the “KP_CL6569 MITC95” value in experiment [1] was determined as 3.125 µM. In experiment [2], the “PA_CL5701 MITC95” value worked out at 25 µM.

For `C[n+]1cc(-c2ccc(OC[C@H](O/N=C(\C(=O)N[C@@H]3C(=O)N(OS(=O)(=O)O)C3(C)C)c3csc(N)n3)C(=O)O)cc2)cn1CC(O)CN` (stereo partly drawn) [Example 42, (3S)-3-((Z)-2-(((1S)-2-(4-(1-(3-amino-2-hydroxypropyl)-2-methyl-1H-pyrazol-2-ium-4-yl)phenoxy)-1-carboxyethoxy)imino)-2-(2-aminothiazol-4-yl)acetamido)-2,2-dimethyl-4-oxoazetidin-1-yl sulfate], the “KP_CL6569 MITC95” value in experiment [1] was found to be 0.3906 µM. Also, the “PA_CL5701 MITC95” value in experiment [2] is 3.125 µM.

In the case of `Cc1c(-c2ccc(OC[C@H](O/N=C(\C(=O)N[C@@H]3C(=O)N(OS(=O)(=O)O)C3(C)C)c3csc(N)n3)C(=O)O)cc2)c(C)[n+](C)n1CCCN.O=C([O-])C(F)(F)F` [Example 20, 1-(3-aminopropyl)-4-(4-((S)-2-((((Z)-1-(2-aminothiazol-4-yl)-2-(((S)-2,2-dimethyl-4-oxo-1-(sulfooxy)azetidin-3-yl)amino)-2-oxo-ethylidene)amino)oxy)-2-carboxyethoxy)phenyl)-2,3,5-trimethyl-1H-pyrazol-2-ium 2,2,2-trifluoroacetate], in experiment [1], the “KP_CL6569 MITC95” value was 0.3906 µM. In experiment [2], the “PA_CL5701 MITC95” value is 6.25 µM.

`C[n+]1cc(-c2ccc(OC[C@H](O/N=C(\C(=O)N[C@@H]3C(=O)N(OS(=O)(=O)[O-])C3(C)C)c3csc(N)n3)C(=O)O)cc2F)cn1C[C@@H](O)CN.O=CO` (single isomer, unassigned) [Example 43]: the “KP_CL6569 MITC95” value in experiment [1] was determined as 0.1953 µM. Moreover, the “PA_CL5701 MITC95” value in experiment [2] stood at 3.125 µM.

As for `C[n+]1cc(-c2ccc(OC(CO/N=C(\C(=O)N[C@@H]3C(=O)N(OS(=O)(=O)[O-])C3(C)C)c3csc(N)n3)C(=O)O)cc2)cn1CCCN` (single isomer, unassigned) [Example 85], the “KP_CL6569 MITC95” value in experiment [1] turned out to be 2.5 µM. For the same compound, the “PA_CL5701 MITC95” value in experiment [2] was determined as 40 µM.

`CC1(C)[C@H](NC(=O)/C(=N\O[C@@H](COc2ccc(-c3cn(CCCN)[n+](C[C@@H]4CCNC4)c3)cc2)C(=O)O)c2csc(N)n2)C(=O)N1OS(=O)(=O)[O-]` [Example 53, (S)-3-((Z)-2-(((S)-2-(4-(1-(3-aminopropyl)-2-(((R)-pyrrolidin-3-yl)methyl)-1H-pyrazol-2-ium-4-yl)phenoxy)-1-carboxyethoxy)imino)-2-(2-aminothiazol-4-yl)acetamido)-2,2-dimethyl-4-oxoazetidin-1-yl sulfate]: the “KP_CL6569 MITC95” value in experiment [1] is 0.09766 µM. Further, the “PA_CL5701 MITC95” value in experiment [2] was 1.563 µM.

Take `C[n+]1ccc(-c2ccc(OC[C@H](O/N=C(\C(=O)N[C@@H]3C(=O)N(OS(=O)(=O)[O-])C3(C)C)c3csc(N)n3)C(=O)O)cc2)cc1NCC1CNC1` [Example 65, (S)-3-((Z)-2-(2-aminothiazol-4-yl)-2-(((S)-2-(4-(2-((azetidin-3-ylmethyl)amino)-1-methylpyridin-1-ium-4-yl)phenoxy)-1-carboxy-ethoxy)imino)acetamido)-2,2-dimethyl-4-oxoazetidin-1-yl sulfate]: the “KP_CL6569 MITC95” value in experiment [1] amounted to 0.3906 µM. In experiment [2], the “PA_CL5701 MITC95” value turned out to be 12.5 µM.

Turning to `Cn1c(-c2ccc(OC[C@H](O/N=C(\C(=O)N[C@@H]3C(=O)N(OS(=O)(=O)O)C3(C)C)c3csc(N)n3)C(=O)O)cc2F)cn(CCCN)c1=N` [Example 96, (S)-3-(4-(1-(3-aminopropyl)-2-imino-3-methyl-2,3-dihydro-1H-imidazol-4-yl)-3-fluorophenoxy)-2-((((Z)-1-(2-aminothiazol-4-yl)-2-(((S)-2,2-dimethyl-4-oxo-1-(sulfooxy)azetidin-3-yl)amino)-2-oxoethylidene)amino)oxy)propanoic acid], the “KP_CL6569 MITC95” value in experiment [1] was 0.3906 µM. Also, in experiment [2], the “PA_CL5701 MITC95” value came out at 6.25 µM.

With `C[n+]1cc(-c2ccc(OC[C@@](C)(O/N=C(\C(=O)N[C@@H]3C(=O)N(OS(=O)(=O)O)C3(C)C)c3nc(N)sc3Cl)C(=O)O)cc2)cn1CCCN` [Example 51B, (S)-3-((Z)-2-(2-amino-5-chlorothiazol-4-yl)-2-((((R)-1-(4-(1-(3-aminopropyl)-2-methyl-1H-pyrazol-2-ium-4-yl)phenoxy)-2-carboxypropan-2-yl)oxy)imino)acetamido)-2,2-dimethyl-4-oxoazetidin-1-yl sulfate], the “KP_CL6569 MITC95” value in experiment [1] was 6.25 µM. In addition, the “PA_CL5701 MITC95” value in experiment [2] worked out at 25 µM.

On to `C[n+]1cc(-c2ccc(OC[C@@H](CO)O/N=C(\C(=O)N[C@@H]3C(=O)N(OS(=O)(=O)O)C3(C)C)c3csc(N)n3)cc2)ccc1NCCN` [Example 89, (S)-3-((Z)-2-((((R)-1-(4-(6-((2-aminoethyl)amino)-1-methylpyridin-1-ium-3-yl)phenoxy)-3-hydroxypropan-2-yl)oxy)imino)-2-(2-aminothiazol-4-yl)acetamido)-2,2-dimethyl-4-oxoazetidin-1-yl sulfate], for which the “KP_CL6569 MITC95” value in experiment [1] stood at 1.563 µM. For the same compound, the “PA_CL5701 MITC95” value in experiment [2] came out at 50 µM.

Turning to `CC1(C)[C@H](NC(=O)/C(=N\O[C@@H](COc2ccc(-c3cn(CCCN)cn3)cc2)C(=O)O)c2csc(N)n2)C(=O)N1OS(=O)(=O)O` [Example 10, (S)-3-(4-(1-(3-Aminopropyl)-1H-imidazol-4-yl)phenoxy)-2-((((Z)-1-(2-aminothiazol-4-yl)-2-(((S)-2,2-dimethyl-4-oxo-1-(sulfooxy)azetidin-3-yl)amino)-2-oxoethylidene)amino)oxy)propanoic acid], in experiment [1], the “KP_CL6569 MITC95” value worked out at 0.3906 µM. Also, the “PA_CL5701 MITC95” value in experiment [2] turned out to be 6.25 µM.

Turning to `C[n+]1cc(-c2ccc(CCC(O/N=C(\C(=O)N[C@@H]3C(=O)N(OS(=O)(=O)[O-])C3(C)C)c3csc(N)n3)C(=O)O)cc2)cn1CCCN` (single isomer, unassigned) [Example 93], the “KP_CL6569 MITC95” value in experiment [1] was 0.1953 µM. In addition, in experiment [2], the “PA_CL5701 MITC95” value was 6.25 µM.

Regarding `Cc1cc(-c2ccc(OC[C@H](O/N=C(\C(=O)N[C@@H]3C(=O)N(OS(=O)(=O)O)C3(C)C)c3csc(N)n3)C(=O)O)cc2)n(CCCN)[n+]1C.O=C([O-])C(F)(F)F` [Example 21, 1-(3-aminopropyl)-5-(4-((S)-2-((((Z)-1-(2-aminothiazol-4-yl)-2-(((S)-2,2-dimethyl-4-oxo-1-(sulfooxy)azetidin-3-yl)amino)-2-oxo-ethylidene)amino)oxy)-2-carboxyethoxy)phenyl)-2,3-dimethyl-1H-pyrazol-2-ium 2,2,2-trifluoroacetate], the “KP_CL6569 MITC95” value in experiment [1] came to 0.3906 µM. For the same compound, in experiment [2], the “PA_CL5701 MITC95” value was 12.5 µM.

Regarding `CC1(C)[C@H](NC(=O)/C(=N\O[C@@H](COc2ccc(-c3cnc(NCCN)[n+](CC4CNC4)c3)cc2)C(=O)O)c2csc(N)n2)C(=O)N1OS(=O)(=O)[O-]` [Example 99, (S)-3-((Z)-2-(((S)-2-(4-(2-((2-aminoethyl)amino)-1-(azetidin-3-ylmethyl)pyrimidin-1-ium-5-yl)phenoxy)-1-carboxyethoxy)imino)-2-(2-aminothiazol-4-yl)acetamido)-2,2-dimethyl-4-oxoazetidin-1-yl sulfate], in experiment [1], the “KP_CL6569 MITC95” value is 0.1953 µM. In addition, in experiment [2], the “PA_CL5701 MITC95” value is 3.125 µM.

Consider `C[n+]1nc(NCCCN)ccc1-c1ccc(OC[C@H](O/N=C(\C(=O)N[C@@H]2C(=O)N(OS(=O)(=O)[O-])C2(C)C)c2csc(N)n2)C(=O)O)cc1` [Example 122, (S)-3-((Z)-2-(((S)-2-(4-(3-((3-aminopropyl)amino)-1-methylpyridazin-1-ium-6-yl)phenoxy)-1-carboxyethoxy)imino)-2-(2-aminothiazol-4-yl)acetamido)-2,2-dimethyl-4-oxoazetidin-1-yl sulfate], for which the “KP_CL6569 MITC95” value in experiment [1] worked out at 0.1953 µM. Also, the “PA_CL5701 MITC95” value in experiment [2] came to 3.125 µM.

Regarding `CC1(C)[C@H](NC(=O)/C(=N\O[C@@H](COc2ccc(-c3cn(CCCN)[n+](CCCN)c3)cc2)C(=O)O)c2csc(N)n2)C(=O)N1OS(=O)(=O)[O-]` [Example 54, (S)-3-((Z)-2-(2-aminothiazol-4-yl)-2-(((S)-2-(4-(1,2-bis(3-aminopropyl)-1H-pyrazol-2-ium-4-yl)phenoxy)-1-carboxyethoxy)imino)acetamido)-2,2-dimethyl-4-oxoazetidin-1-yl sulfate], the “KP_CL6569 MITC95” value in experiment [1] was 0.09766 µM. Moreover, the “PA_CL5701 MITC95” value in experiment [2] amounted to 1.563 µM.

`CC1(C)[C@H](NC(=O)/C(=N\O[C@@H](COc2ccc(-n3ccn(CCCN)c3=N)nc2)C(=O)O)c2csc(N)n2)C(=O)N1OS(=O)(=O)O` [Example 118, (S)-3-((6-(3-(3-aminopropyl)-2-imino-2,3-dihydro-1H-imidazol-1-yl)pyridin-3-yl)oxy)-2-((((Z)-1-(2-aminothiazol-4-yl)-2-(((S)-2,2-dimethyl-4-oxo-1-(sulfooxy)azetidin-3-yl)amino)-2-oxoethylidene)amino)oxy)propanoic acid]: in experiment [1], the “KP_CL6569 MITC95” value was found to be 0.3906 µM. In addition, the “PA_CL5701 MITC95” value in experiment [2] was 6.25 µM.
